Columns and labels:
[1] = molecular target: T1, LdPAT4-DHHC (Leishmania donovani, UniProt A0A3S7X1Q3); test: click-chemistry metabolic labelling of E. coli expressing LdPAT4-DHHC, Oregon Green […] fluorometry; format: cell-based; details: substrate Alk-C16 100 uM, induced E. coli Rosetta cells, 37 C, 6 h; 2-BMP concentration not stated
T1 construct: gene LdCL_280025100; DHHC domain only (423 bp), N-terminal GST tag (pGEX-4T-1, BamHI/SalI), E. coli Rosetta, ~40 kDa with tag
T1 sequence (A0A3S7X1Q3 268-407): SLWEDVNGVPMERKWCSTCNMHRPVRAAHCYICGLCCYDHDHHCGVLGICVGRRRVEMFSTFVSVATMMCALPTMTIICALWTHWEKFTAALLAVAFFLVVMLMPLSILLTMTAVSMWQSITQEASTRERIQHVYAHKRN

[2] = molecular target: T1, LdPAT4-DHHC; test: as above; format: cell-based; details: 100 uM Alk-C16, induced E. coli Rosetta cells, 37 C, 6 h; labelled compound (alkyne probe)

Compound | reduction in fluorescence intensity [1] | click-chemistry metabolic labelling of E. coli expressing LdPAT4-DHHC, Oregon Gr [2]
CCCCCCCCCCCCCCC(Br)C(=O)O (centres unmarked) [2-BMP] | following 2-BMP treatment of induced cells, reduction in fluorescence intensity was detected | –
C#CCCCCCCCCCCCCCC(=O)O [Alk-C16] | – | predominant incorporation of palmitic acid analogs into transformed E. coli

From PMC6022219, “Identification and Characterization of a Novel Palmitoyl Acyltransferase as a Druggable Rheostat of Dynamic Palmitoylome in L. donovani” (Frontiers in Cellular and Infection Microbiology, 2018)
